Test results from patent publication US20240009223A1, “6-THIO-2'-DEOXYGUANOSINE (6-THIO-DG) RESULTS IN TELOMERASE DEPENDENT TELOMERE DYSFUNCTION AND CELL DEATH IN VARIOUS MODELS OF THERAPY-RESISTANT CANCER CELLS” (The Board of Regents of The University of Texas System, priority 2016, published 2024).
Several values for one entry are separate records, joined by “and”; a condition that tells them apart may be missing. Identical values can stand only once.

Experiments:
[1] = test system: panel of 12 cancer cell lines of 9 different histological origins; assay: Long-term cell growth assay (crystal violet), 12 non-melanoma cancer cell lines; format: cell-based; conditions: dose of 25 μM; 9-12 days
Protocol: FIGS. 1A-1B show long-term cell growth assay of 12 non-melanoma cancer cell lines (FIG. 1A) and 12 BRAF-mutant melanoma cell lines (FIG. 1B) that were treated with 6-thio-dG (6dG) or BIBR 1532 (BIBR) at indicated doses for 9 to 12 days.
Treatment of a Variety of Cancer Cell Lines with Telomerase-directed 6-thio-dG Impairs Cell Viability. […] To further confirm the inhibitory effect of 6-thio-dG, a panel of 12 cancer cell lines of 9 different histological origins was treated with 6-thio-dG for 9-12 days. As the control for 6-thio-dG, a known telomerase inhibitor, BIBR 1532, was also included. In most cases, these cancer cell lines were sensitive to 6-thio-dG administered at a dose of 2.5 μM and higher (FIG. 1A).

PEO1-CR = assay: Relative cell viability, PEO1-CR; format: cell-based, human; conditions: 5 days
Protocol: (§1) Additionally, the efficacy of 6-thio-dG was tested using two human ovarian cancer cell lines, PEO4 and PEO1-CR. PEO4 is a derivative line of BRCA1/2-mutant PEO1 that regains homologous recombination by BRCA reversion mutation. […] Importantly, all three cell lines were sensitive to 6-thio-dG after the 5-day treatment (FIGS. 14H-14J).

WO-24-2 = assay: Relative cell viability, patient-derived culture WO-24-2; format: cell-based, human; conditions: carboplatin at indicated doses, 5 days
Text: A short-term primary culture, WO-24-2 from a therapy-resistant human ovarian cancer, was also established. The WO-24-2 tumor was resected from a patient with high grade serous ovarian cancer who underwent an interval debulking surgery after receiving neoadjuvant chemotherapy with platinum/taxane and subsequently progressed on platinum chemotherapy. Immunofluorescence staining of PAX8 and cytokeratin 7 confirmed that these were indeed human ovarian cancer cells (FIG. 14K) (George et al., 2017).

PEO1 = assay: Relative cell viability, PEO1; format: cell-based, human; conditions: 5 days
Protocol: as §1

PEO4 = assay: Relative cell viability, PEO4; format: cell-based, human; conditions: 5 days
Protocol: as §1

[2] = test system: metastatic melanoma (BRAF mutation); assay: Targeted therapy patients' clinical response; format: in vivo, human; conditions: one patient per row; vemurafenib 1920 mg daily
Protocol: (§2) Ethics Statement. All clinical data and patient samples were collected following approval by the Massachusetts General Hospital institutional review board and the Hospital of the University of Pennsylvania institutional review board. In all cases informed consent was obtained. All animal studies were conducted in accordance with the Guide for the Care and Use of Laboratory Animals of the NIH. Mice were maintained according to the guidelines of the Wistar Institutional Animal Care and Use Committee (IACUC), and study designs were approved by the Wistar IACUC.
In addition to treatment-naïve human melanoma, paired pre-, on- and post-treatment tumor biopsies derived from patients with metastatic melanoma who were treated with targeted therapies or immune checkpoint blockade therapies were analyzed.

metastatic melanoma = assay: Immune checkpoint therapy patient's clinical response; format: in vivo, human; conditions: patient #39, previously progressed on other therapies
Protocol: as §2
RNA-seq of 31 paired pre-, on- and/or post-treatment tumor biopsies derived from 12 patients who were treated with various immune checkpoint blockade therapies were carried out. […] The ssGSEA identified that “packaging of telomere ends” and “telomere maintenance” were highly enriched in 7 out 12 patients' on- or post-treatment tumor biopsies (FIG. 11). […] Prior to pembrolizumab, this patient progressed on vemurafenib, IL-2, ipilimumab, and dabrafenib plus trametinib. It was observed that “telomere maintenance” and “packaging of telomere ends” were highly enriched in this patient's on-treatment tumor biopsy compared to the paired pre-treatment tumor biopsy (FIG. 9F and Table 8). 00449194) 96

## C/C(=C\C(=O)Nc1ccccc1C(=O)O)c1ccc2ccccc2c1 [BIBR 1532, reference compound]
[1]
  anti-proliferative activity: observed in a subset of 12 cancer cell lines

## N.N.O=C([O-])C1(C(=O)[O-])CCC1.[Pt+2] [carboplatin, reference compound]
PEO1-CR
  sensitivity (relative cell viability): acquired resistance
WO-24-2
  sensitivity (relative cell viability): resistant
PEO1
  sensitivity (relative cell viability): sensitive
PEO4
  sensitivity (relative cell viability): intrinsically resistant

## CCCS(=O)(=O)Nc1ccc(F)c(C(=O)c2c[nH]c3ncc(-c4ccc(Cl)cc4)cc23)c1F [vemurafenib]
[2]
  Response (value in parentheses): −16.5% and −51.2% and −53% and −24.9% and −81.5% and −60.5% and −56% and −27%
  Time To Progression: 6 months and 5 months and 2 months and 4.3 months and PD at 9 months and 13.4 months and 8.5 months and 3.5 months and 6.5 months

## pembrolizumab: anti-PD-1 drug
Metastatic melanoma
  best response: progressive disease
